US20240368104A1, “Novel Dialkoxynaphtho[2,3-C]Furan-1(3H)-One Derivatives and Pharmaceutical Composition For Preventing or Treating Respiratory Disease or SARS-COV-2 Infection Disease, Comprising Same” (priority 2021, published 2024)
pIC50: −log10 of the molar value. Structures can show the parent of a compound that is named as a salt. Where two headings read alike, the source gives them in different places.

Tests used:
in vitro = settings: African green monkey
SARS-COV-2 = experiment: microbe, parasite or virus in culture; assay type: cell-based; set-up: SI (Selectivity Index, CC50/IC50): unit not given here; settings: for SI (Selectivity Index, CC50/IC50): SARS-COV-2, values >50 assumed to be 50; for pIC50: read-out: SARS-COV-2 inhibition (IC50)
[1] = Severe acute respiratory syndrome coronavirus 2, Vero cells, 24 hours infection
[2] = Severe acute respiratory syndrome coronavirus 2, Vero, 24 h

SMILES	CC50 (in vitro)	SI (Selectivity Index, CC50/IC50) (SARS-COV-2)	pIC50 (SARS-COV-2; [1])	pIC50 (SARS-COV-2; [2])
COc1cc2cc3c(c(-c4ccc(N(C)C(=O)N5CCOCC5)nc4)c2cc1OC)C(=O)OC3 [Example 235, N-(5-(6,7-dimethoxy-3-oxo-1,3-dihydronaphtho[2,3-c]furan-4-yl)pyridin-2-yl)-N-methylmorpholin-4-carboxamide]	> 50 µM	1.00	< 4.30	–
COc1cc2cc(CO)c(C(=O)[O-])c(-c3cc4c(cc3O)OCO4)c2cc1OC.[Na+] [Example 212, 1-(6-hydroxybenzo[d][1,3]dioxol-5-yl)-3-(hydroxymethyl)-6,7-dimethoxy-2-naphthoate sodium (I)]	> 50 µM	2.81	4.75	–
COc1cc2cc3c(c(-c4ccc(-c5c(OC)ncnc5OC)cc4)c2cc1OC)C(=O)OC3 [Example 157, 9-(4-(4,6-dimethoxypyrimidin-5-yl)phenyl)-6,7-dimethoxynaphtho[2,3-c]furan-1(3H)-one]	> 50 µM	1.0	< 4.30	–
CCCCN(C)c1ccc(-c2c3c(cc4cc(OC)c(OC)cc24)COC3=O)cn1 [Example 180, 9-(6-(butyl(methyl)amino)pyridin-3-yl)-6,7-dimethoxynaphtho[2,3-c]furan-1(3H)-one]	> 50 µM	73.59	6.17	–
COc1cc2cc3c(c(-c4ccc(N(C)CCC5OCCO5)nc4)c2cc1OC)C(=O)OC3 [Example 161, 9-(6-((2-(1,3-dioxolan-2-yl)ethyl)(methyl)amino)pyridin-3-yl)-6,7-dimethoxynaphtho[2,3-c]furan-1(3H)-one]	> 50 µM	7.74	5.19	–
COc1cc2cc3c(c(-c4ccc5c(O)cc(C)nc5c4C)c2cc1OC)C(=O)OC3 [Example 146, 9-(4-hydroxy-2,8-dimethylquinolin-7-yl)-6,7-dimethoxynaphtho[2,3-c]furan-1(3H)-one]	> 50 µM	1.0	< 4.30	–
COCCN(C)c1ccc(-c2c3c(cc4cc(OC)c(OC)cc24)COC3=O)cn1.Cl [Example 168, 6,7-dimethoxy-9-(6-((2-methoxyethyl)(methyl)amino)pyridin-3-yl)naphtho[2,3-c]furan-1(3H)-one hydrochloride]	> 50 µM	42.46	–	5.93
COc1cc2cc3c(c(-c4ccc(N(C)[C@H]5CCc6c(cccc6OC)C5)nc4)c2cc1OC)C(=O)OC3 [Example 164, (S)-6,7-dimethoxy-9-(6-((5-methoxy-1,2,3,4-tetrahydronaphthalen-2-yl)(methyl)amino)pyridin-3-yl)naphtho[2,3-c]furan-1(3H)-one]	> 50 µM	39.02	5.89	–
CCNc1ccc(-c2c3c(cc4cc(OC)c(OC)cc24)COC3=O)cc1 [Example 250, 9-(4-(ethylamino)phenyl)-6,7-dimethoxynaphtho[2,3-c]furan-1(3H)-one]	> 50 µM	10.40	5.32	–
COc1cc2cc3c(c(-c4ccc(N(C)c5nn(C)cc5C#N)nc4)c2cc1OC)C(=O)OC3.Cl [Example 241, 3-((5-(6,7-dimethoxy-3-oxo-1,3-dihydronaphtho[2,3-c]furan-4-yl)pyridin-2-yl)(methyl)amino)-1-methyl-1H-pyrazol-4-carbonitrile]	> 50 µM	1.00	–	< 4.30
COc1cc2cc3c(c(-c4cc5c(cc4OC(=O)C(N)C(C)C)OCO5)c2cc1OC)C(=O)OC3.Cl (stereo in doubt) [Example 269, 6-(6,7-dimethoxy-3-oxo-1,3-dihydronaphtho[2,3-c]furan-4-yl)benzo[d][1,3]dioxol-5-yl L-valinate hydrochloride]	> 50 µM	94.66	–	6.28
COc1cc2cc3c(c(-c4cnc(N(C)CCCN5CCOCC5)nc4)c2cc1OC)C(=O)OC3 [Example 112, 6,7-dimethoxy-9-(2-(methyl(3-morpholinopropyl)amino)pyrimidin-5-yl)naphtho[2,3-c]furan-1(3H)-one dihydrochloride]	> 50 µM	6.70	–	5.13
COc1cc2cc3c(c(-c4cc5c(cc4OC(=O)c4ccncc4)OCO5)c2cc1OC)C(=O)OC3 [Example 271, 6-(6,7-dimethoxy-3-oxo-1,3-dihydronaphtho[2,3-c]furan-4-yl)benzo[d][1,3]dioxol-5-yl isonicoinate]	> 50 µM	34.41	5.84	–
COc1cc2cc3c(c(-c4cnc(NCC5CC5)nc4)c2cc1OC)C(=O)OC3 [Example 67, 9-(2-((cyclopropylmethyl)amino)pyrimidin-5-yl)-6,7-dimethoxynaphtho[2,3-c]furan-1(3H)-one]	> 50 µM	2.72	4.74	–
COc1cc2cc3c(c(-c4ccc5c(CN6CCOCC6)c[nH]c5c4)c2cc1OC)C(=O)OC3.Cl [Example 203, 6,7-dimethoxy-9-(3-(morpholinomethyl)-1H-indol-6-yl)naphtho[2,3-c]furan-1(3H)-one]	29.7 µM	8.39	–	5.45
CNc1ncc(-c2c3c(cc4cc(OC)c(OC)cc24)COC3=O)cn1 [Example 108, 6,7-dimethoxy-9-(2-(methylamino)pyrimidin-5-yl)naphtho[2,3-c]furan-1(3H)-one]	> 50 µM	18.03	5.56	–
COc1cc2cc3c(c(-c4cnc(N(C)C5CC5)nc4)c2cc1OC)C(=O)OC3 [Example 70, 9-(2-(cyclopropyl(methyl)amino)pyrimidin-5-yl)-6,7-dimethoxynaphtho[2,3-c]furan-1(3H)-one]	> 50 µM	92.84	6.27	–
COc1cc2cc3c(c(-c4cnc(N5CCC(C)CC5)nc4)c2cc1OC)C(=O)OC3 [Example 107, 6,7-dimethoxy-9-(2-(4-methylpiperidin-1-yl)pyrimidin-5-yl)naphtho[2,3-c]furan-(3H)-one hydrochloride]	> 50 µM	35.49	5.85	–
COc1cc2cc3c(c(-c4cnc(N(C)c5cccc(C(F)(F)F)c5)nc4)c2cc1OC)C(=O)OC3 [Example 216, 6,7-dimethoxy-9-(2-(methyl(3-(trifluoromethyl)phenyl)amino)pyrimidin-5-yl)naphtho[2,3-c]furan-1(3H)-one]	> 50 µM	52.13	6.02	–
CCN(c1ncc(-c2c3c(cc4cc(OC)c(OC)cc24)COC3=O)cn1)C(C)C.Cl [Example 75, 9-(2-(ethyl(isopropyl)amino)pyrimidin-5-yl)-6,7-dimethoxynaphtho[2,3-c]furan-1(3H)-one hydrochloride]	> 50 µM	60.56	–	6.08
CCCCN(C)c1ncc(-c2c3c(cc4cc(OC)c(OC)cc24)COC3=O)cn1 [Example 71, 9-(2-(butyl(methyl)amino)pyrimidin-5-yl)-6,7-dimethoxynaphtho[2,3-c]furan-1(3H)-one]	> 50 µM	234.36	–	6.68
COc1cc2cc3c(c(-c4ccc(N[C@H]5CCc6c(cccc6OC)C5)nc4)c2cc1OC)C(=O)OC3.Cl [Example 172, (S)-6,7-dimethoxy-9-(6-((5-methoxy-1,2,3,4-tetrahydronaphthalen-2-yl)amino)pyridin-3-yl)naphtho[2,3-c]furan-1(3H)-one]	> 50 µM	1.0	–	< 4.30
COc1cc2cc3c(c(-c4cnc(N(C)C5CCCCC5)nc4)c2cc1OC)C(=O)OC3.Cl [Example 79, 9-(2-(cyclohexyl(methyl)amino)pyrimidin-5-yl)-6,7-dimethoxynaphtho[2,3-c]furan-1(3H)-one hydrochloride]	> 50 µM	46.19	–	5.97
COc1cc2cc3c(c(-c4ccc(N(C)c5ccccc5)nc4)c2cc1OC)C(=O)OC3 [Example 222, 6,7-dimethoxy-9-(6-(methyl(phenyl)amino)pyridin-3-yl)naphtho[2,3-c]furan-1(3H)-one]	> 50 µM	162.21	6.51	–
COc1cc2cc3c(c(-c4ccc(F)nc4)c2cc1OC)C(=O)OC3 [Example 35, 9-(6-fluoropyridin-3-yl)-6,7-dimethoxynaphtho[2,3-c]furan-1(3H)-one]	> 50 µM	1.00	< 4.30	–
COc1cc2cc3c(c(-c4ccc5occc5c4)c2cc1OC)C(=O)OC3 [Example 52, 9-(benzofuran-5-yl)-6,7-dimethoxynaphtho[2,3-c]furan-1(3H)-one]	> 50 µM	35.13	5.85	–
COc1cc2cc3c(c(-c4ccc(N(C)Cc5ccc(C)o5)nc4)c2cc1OC)C(=O)OC3 [Example 179, 6,7-dimethoxy-9-(6-(methyl((5-methylfuran-2-yl)methyl)amino)pyridin-3-yl)naphtho[2,3-c]furan-1(3H)-one]	> 50 µM	49.02	5.99	–
COc1cc2cc3c(c(-c4cc5c(cc4OC(=O)c4cccnc4)OCO5)c2cc1OC)C(=O)OC3 [Example 272, 6-(6,7-dimethoxy-3-oxo-1,3-dihydronaphtho[2,3-c]furan-4-yl)benzo[d][1,3]dioxol-5-yl nicotinate]	> 50 µM	27.23	5.74	–
COc1cc2cc3c(c(-c4ccc(N(C)Cc5cccnc5)cc4)c2cc1OC)C(=O)OC3 [Example 255, 6,7-dimethoxy-9-(4-(methyl(pyridin-3-ylmethyl)amino)phenyl)naphtho[2,3-c]furan-1(3H)-one]	> 50 µM	15.74	5.50	–
